Measured values: publication PMC1521118 (Environmental Health Perspectives, 1993)
Read-outs that look alike come from different tables or passages of the source.

Assays:
[1] = tested on: Salmonella typhimurium TA97
[2] = tested on: Salmonella typhimurium TA98
cytochrome P450 = conditions: phenobarbital-inducible cytochrome P450, presumably CYP2B; cited from earlier work
[3] = rat, in vivo; cited from earlier work
sulfotransferase = conditions: cited from earlier work
[4] = tested on: Bacillus subtilis-transforming DNA; conditions: reactive species toward Bacillus subtilis-transforming DNA; cited from earlier work
[5] = 10 female Wistar rats; at 15 months; cited from earlier work
[6] = tested on: sarcoma 180 ascites cells; conditions: mice bearing sarcoma 180 ascites cells; cited from earlier work
[7] = Sprague-Dawley rats; cited from earlier work
[8] = tested on: Salmonella typhimurium TA98; conditions: ref 35 (McCartney et al.); cited from earlier work
mouse sarcoma 180 cells = mouse sarcoma 180 cells in vitro; cited from earlier work
[9] = with (+) Aroclor 1254 rat hepatic S9 10% v/v, 100 ng/plate
[10] = absence of S9, 100 ng/plate or less

Nc1ccc2cc3ccccc3cc2c1 [2-Aminoanthracene, reference compound]
histidine revertants/plate, TA97 ([1]; Salmonella typhimurium): 600 histidine revertants/plate | histidine revertants/plate, TA98 ([2]; Salmonella typhimurium): 865 histidine revertants/plate

Nc1ncnc2nc[nH]c12 [Adenine]
histidine revertants/plate, TA97 [1, 9]: 104 + 12 histidine revertants/plate | histidine revertants/plate, TA98 ([2]; with (+) S9, 100 ng/plate): 76 + 11 histidine revertants/plate | oxidation to adenine-1-N-oxide (cytochrome P450): failed to oxidize

Nc1c2[nH]cnc2nc[n+]1[O-] [Adenine-1-N-oxide]
histidine revertants/plate, TA98 ([2]; without (-) S9, 100 ng/plate): 19 + 6 histidine revertants/plate | tumor production [3]: failed to produce tumors | activity as a sulfate acceptor (sulfotransferase): inactive

Cn1cnc2c(N)[n+]([O-])cnc21 [9-Methyladenine-1-N-oxide]
histidine revertants/plate, TA98 ([2]; with (+) S9, 100 ng/plate): 118 + 9 histidine revertants/plate

CC(=O)On1cnc2ncnc-2c1N [1-acetoxyadenine]
mutagenicity [4]: weak mutagen

ONc1ncnc2c1ncn2Cc1ccccc1 [9-Benzyl-6-hydroxylaminopurine]
mutagenic activity toward TA97 (in words) [1, 10]: highly active | mutagenic activity toward TA98 (in words) [2, 10]: inactive

Nc1ncnc2c1ncn2Cc1ccccc1 [9-Benzyladenine]
histidine revertants/plate, TA98 ([2]; with (+) S9, 100 ng/plate): 131 + 18 histidine revertants/plate

Cn1cnc2c(N)ncnc21 [9-Methyladenine]
histidine revertants/plate, TA97 [1, 9]: 88 + 4 histidine revertants/plate | histidine revertants/plate, TA98 ([2]; without (-) S9, 100 ng/plate): 21 + 6 histidine revertants/plate

ONc1ncnc2nc[nH]c12 [6-Hydroxylaminopurine]
reversion rate relative to spontaneous reversion rate, TA97 ([1]; 1 ng/plate, without metabolic activation): twice the spontaneous reversion rate | toxicity toward TA97 ([1]; 100 ng/plate): toxic | histidine revertants/plate, TA97 ([1]; with (+) S9, 1 ng/plate): 113 + 4 histidine revertants/plate | tumors produced [5]: only one tumor | survival time [6]: prolonged the survival time | toxicity toward TA98 ([2]; 1 ng/plate): still toxic | toxicity toward TA98 ([2]; 100 ng/plate): toxic | toxicity toward TA98 ([2]; concentration not given): extremely toxic | histidine revertants/plate, TA98 ([2]; with (+) S9, 1 ng/plate): toxic | histidine revertants/plate, TA98 ([2]; without (-) S9, 1 ng/plate): toxic | oncogenicity [7]: completely inactive | mutagenicity toward TA98 [8]: inactive | effect on cells (mouse sarcoma 180 cells): induced mitotic inhibition and nuclear degeneration
